Experimental data: ChEMBL document CHEMBL1201862, “PubChem BioAssay data set” (2004)
Active and inactive are the calls of the source.

Key:
[1] = molecular target: T1, Apoptotic protease-activating factor 1 (Homo sapiens, UniProt O14727); type: functional;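 on EC50 Mean: caspase-3 cleavage of fluorogenic Rh110 DEVD substrate downstream of apoptosome activation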
T1 sequence (O14727 whole entry): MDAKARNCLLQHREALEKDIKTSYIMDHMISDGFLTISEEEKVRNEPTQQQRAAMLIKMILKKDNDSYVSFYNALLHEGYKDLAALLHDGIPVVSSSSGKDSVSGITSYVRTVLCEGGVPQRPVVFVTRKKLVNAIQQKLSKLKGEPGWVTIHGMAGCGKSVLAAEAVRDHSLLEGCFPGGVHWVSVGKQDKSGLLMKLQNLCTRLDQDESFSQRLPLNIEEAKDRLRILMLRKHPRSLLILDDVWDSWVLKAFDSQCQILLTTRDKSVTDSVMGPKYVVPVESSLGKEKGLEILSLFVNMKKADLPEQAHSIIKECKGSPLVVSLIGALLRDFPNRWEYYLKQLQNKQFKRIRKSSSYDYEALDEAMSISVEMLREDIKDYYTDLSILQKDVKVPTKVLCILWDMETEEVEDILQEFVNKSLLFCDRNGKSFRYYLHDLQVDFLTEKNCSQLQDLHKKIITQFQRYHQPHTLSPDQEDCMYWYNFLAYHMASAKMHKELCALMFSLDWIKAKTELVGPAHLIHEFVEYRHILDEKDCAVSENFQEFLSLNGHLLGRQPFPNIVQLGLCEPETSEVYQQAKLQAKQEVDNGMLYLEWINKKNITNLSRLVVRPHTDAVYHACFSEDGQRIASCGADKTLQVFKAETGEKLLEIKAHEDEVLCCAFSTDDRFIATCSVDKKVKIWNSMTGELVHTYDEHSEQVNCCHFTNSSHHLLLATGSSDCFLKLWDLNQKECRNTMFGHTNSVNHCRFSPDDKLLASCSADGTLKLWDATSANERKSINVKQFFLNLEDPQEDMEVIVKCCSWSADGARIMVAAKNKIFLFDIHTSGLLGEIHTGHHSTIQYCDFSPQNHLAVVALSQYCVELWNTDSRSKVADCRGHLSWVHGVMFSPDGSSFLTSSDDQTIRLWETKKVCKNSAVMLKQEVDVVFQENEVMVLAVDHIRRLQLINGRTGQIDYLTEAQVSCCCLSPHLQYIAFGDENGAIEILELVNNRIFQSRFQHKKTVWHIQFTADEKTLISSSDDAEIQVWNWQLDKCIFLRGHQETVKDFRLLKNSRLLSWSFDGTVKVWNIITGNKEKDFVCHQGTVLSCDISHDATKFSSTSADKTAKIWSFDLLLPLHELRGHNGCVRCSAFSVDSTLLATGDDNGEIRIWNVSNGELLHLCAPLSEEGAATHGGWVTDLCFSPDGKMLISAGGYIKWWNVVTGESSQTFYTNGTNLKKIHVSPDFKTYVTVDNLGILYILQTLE

INS1 = test: beta cell apoptosis inhibitors, cytokine rescue, dose response, luminescence, retest (AID 449756); type: functional, cell-based; details: Rattus norvegicus;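 further: cell death triggered by IL-1 beta plus TNF-alpha plus IFN-gamma mixture; protective hits raise ATP signal compared with cytokine alone wells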
[2] = molecular target: T2, Sentrin-specific protease 8 (Homo sapiens, UniProt Q96LD8); type: functional
T2 sequence (Q96LD8 whole entry): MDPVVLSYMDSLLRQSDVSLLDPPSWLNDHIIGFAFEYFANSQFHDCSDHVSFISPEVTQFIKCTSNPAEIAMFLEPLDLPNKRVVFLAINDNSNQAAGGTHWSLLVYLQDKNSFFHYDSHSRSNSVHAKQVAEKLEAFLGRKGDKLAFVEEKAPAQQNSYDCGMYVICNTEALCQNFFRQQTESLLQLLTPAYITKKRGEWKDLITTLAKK

[3] = molecular target: T2, Sentrin-specific protease 8; type: functional; remark: listed apart in the source
[4] = A549 cell cytotoxicity, dose response, cytotoxicity control, plate reader, cherry-pick, antagonist series (AID 743412); type: functional, cell-based
[5] = HepG2 cell cytotoxicity, dose response, cytotoxicity control, plate reader, cherry-pick, antagonist series (AID 743416); type: functional, cell-based
[6] = HEK293 cell cytotoxicity, dose response, cytotoxicity control, plate reader, cherry-picked samples (AID 743446); type: functional, cell-based
Beta-galactosidase = Beta-galactosidase (Escherichia coli, UniProt Q8VNN2); test: Dose response counterscreen for EBI2 assay utilizing the enzyme, b-galactosidase.; type: functional
[7] = molecular target: T1, Apoptotic protease-activating factor 1; test: SAR analysis of small molecule Activators of Apaf-1 in a Fluorescent assay.; type: functional; details: read-out: EC50_Mean
[8] = AlphaScreen signal interference compounds, dose response, artefact control for ARNT-TACC3 interaction inhibitor project, biochemical, luminescence, cherry-pick (AID 651705); type: functional;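 further: AlphaScreen bead proximity signal that flags compounds interfering with the detection technology; potency reflects signal decrease which marks the compound as an assay artifact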
[9] = system: Streptococcus sp. 'group A'; test: growth inhibition of control SK(-) GAS strain, dose response, counter-screen for streptokinase expression inhibitor project, luminescence, kanamycin, BacTiterGlo, confirmation (AID 1900); type: functional, organism-based
Streptokinase A = molecular target: T3, Streptokinase A (Streptococcus pyogenes serotype M1, UniProt P10520); test: S. pyogenes streptokinase expression inhibitors, potency, dose response, plasminogen activation absorbance, OD405 (AID 1914); type: functional, Streptococcus pyogenes M1 GAS;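 further: secreted streptokinase activity via plasminogen activation per viability signal from cell pellet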
T3 sequence (P10520 whole entry): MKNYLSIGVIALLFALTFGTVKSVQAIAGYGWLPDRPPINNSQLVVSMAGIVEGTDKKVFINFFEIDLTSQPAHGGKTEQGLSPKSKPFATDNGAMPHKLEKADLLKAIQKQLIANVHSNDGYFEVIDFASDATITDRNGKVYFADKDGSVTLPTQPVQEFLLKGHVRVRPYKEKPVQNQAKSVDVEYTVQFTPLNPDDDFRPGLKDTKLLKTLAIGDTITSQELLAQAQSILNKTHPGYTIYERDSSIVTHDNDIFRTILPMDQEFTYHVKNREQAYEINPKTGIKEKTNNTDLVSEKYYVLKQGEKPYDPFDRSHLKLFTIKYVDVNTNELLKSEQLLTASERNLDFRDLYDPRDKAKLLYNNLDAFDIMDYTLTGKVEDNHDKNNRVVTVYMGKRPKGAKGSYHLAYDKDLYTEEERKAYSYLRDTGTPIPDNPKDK

Streptococcus = test: Group A Streptococcus viability loss, dose response, counter-screen for streptokinase expression inhibitor project, luminescence, BacTiterGlo (AID 1915); type: functional, organism-based;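 further: potency for reduction of bacterial viability or growth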
BJ [10] = test: cytotoxicity toward BJ-TERT fibroblasts, dose response, cell-based, RAS-independent, luminescence (AID 1933); type: functional; details: Homo sapiens
BJ [11] = test: cells; type: functional, cell-based; details: Homo sapiens
BJ [12] = test: cytotoxicity toward BJ-TERT-LT-ST fibroblasts, dose response, cell-based, RAS-independent, luminescence (AID 1935); type: functional; details: Homo sapiens;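 further: BJ fibroblasts immortalized with TERT plus LT and ST oncogenes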
[13] = cytotoxicity toward DRD oncogenic fibroblasts, dose response, cell-based, non-viral oncogenic, luminescence (AID 1934); type: functional; details: Homo sapiens
BJ [14] = test: cytotoxicity toward Ras-transformed BJeLR fibroblasts, dose response, cell-based, alamar blue fluorescence, cherrypicked samples (AID 2631); type: functional; details: Homo sapiens;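 further: confirmatory dose-response assay in RAS-dependent BJ fibroblasts engineered with TERT, LT and ST, with cytotoxicity read by fluorescence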
[15] = molecular target: T4, Rac GTPase-activating protein 1 (Homo sapiens, UniProt Q9H0H5); test: MgcRacGAP GTPase-activating activity inhibitors, confirmation, biochemical, ADP Hunter fluorescence, primary and confirmatory (AID 624330); type: functional
T4 sequence (Q9H0H5 whole entry): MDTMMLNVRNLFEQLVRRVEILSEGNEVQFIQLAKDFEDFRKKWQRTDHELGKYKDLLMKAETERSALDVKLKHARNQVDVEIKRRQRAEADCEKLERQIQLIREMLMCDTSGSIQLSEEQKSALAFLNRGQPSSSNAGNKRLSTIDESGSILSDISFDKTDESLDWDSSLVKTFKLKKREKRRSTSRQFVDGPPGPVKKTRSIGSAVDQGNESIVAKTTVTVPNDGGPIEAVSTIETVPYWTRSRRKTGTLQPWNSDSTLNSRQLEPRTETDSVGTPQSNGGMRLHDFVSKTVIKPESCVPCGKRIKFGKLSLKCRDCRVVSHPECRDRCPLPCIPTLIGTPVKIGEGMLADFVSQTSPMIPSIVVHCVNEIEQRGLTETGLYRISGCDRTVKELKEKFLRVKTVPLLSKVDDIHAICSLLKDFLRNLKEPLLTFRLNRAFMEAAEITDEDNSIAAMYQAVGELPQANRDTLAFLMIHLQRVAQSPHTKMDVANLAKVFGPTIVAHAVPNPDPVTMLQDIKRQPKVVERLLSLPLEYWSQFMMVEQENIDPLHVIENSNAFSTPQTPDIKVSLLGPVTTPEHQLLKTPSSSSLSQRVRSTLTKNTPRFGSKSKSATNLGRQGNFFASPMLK

[16] = miR-122 activators in hepatoma reporter cells, dose response, cell-based, Huh7 psiCHECK-miR122, Renilla luciferase, cherry-picked (AID 651956); type: functional;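 further: huh7 hepatoma cells stably carrying a psiCHECK-2 miR-122 sensor plasmid; renilla luciferase signal reporting endogenous miR-122 activity after 48 h compound exposure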
[17] = HEK293T cytotoxicity, dose response, cytotoxicity control for miR-122 modulator project, cell-based, inhibitor set, cherry-pick, set 2 (AID 720697); type: functional
[18] = HEK293T cytotoxicity, dose response, cytotoxicity control for miR-122 modulator project, cell-based, activator set, cherry-pick (AID 720690); type: functional;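 further: HEK293T human cells scored for general mammalian cytotoxicity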
Melanocortin receptor 4 = Melanocortin receptor 4 (Homo sapiens, UniProt P32245); type: functional, cell-based;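 further: Cell-based assay with luminescence read-out, confirmatory dose-response testing for agonist activity of biased ligands at MC4R; human U2OS cells with tagged receptor and beta-arrestin; potency of agonists that increase receptor coupling to beta-arrestin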
[19] = molecular target: T5, Serine/threonine-protein phosphatase (Candida dubliniensis (strain CD36 / CBS 7987 / NCPF 3949 / NRRLY-17841) (Yeast), UniProt B9W6M3); test: calcineurin pathway inhibitors in yeast reporter, dose response, S. cerevisiae, CDRE-lacZ, luminescence, secondary (AID 2388); type: functional, cell-based;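 further: yeast reporter cells carrying a calcineurin-responsive lacZ construct stimulated with calcium chloride; luminescent beta-galactosidase reporter signal in whole cells rather than isolated phosphatase activity; potency for inhibition where a drop in reporter signal means calcineurin blockade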
T5 sequence (B9W6M3 whole entry): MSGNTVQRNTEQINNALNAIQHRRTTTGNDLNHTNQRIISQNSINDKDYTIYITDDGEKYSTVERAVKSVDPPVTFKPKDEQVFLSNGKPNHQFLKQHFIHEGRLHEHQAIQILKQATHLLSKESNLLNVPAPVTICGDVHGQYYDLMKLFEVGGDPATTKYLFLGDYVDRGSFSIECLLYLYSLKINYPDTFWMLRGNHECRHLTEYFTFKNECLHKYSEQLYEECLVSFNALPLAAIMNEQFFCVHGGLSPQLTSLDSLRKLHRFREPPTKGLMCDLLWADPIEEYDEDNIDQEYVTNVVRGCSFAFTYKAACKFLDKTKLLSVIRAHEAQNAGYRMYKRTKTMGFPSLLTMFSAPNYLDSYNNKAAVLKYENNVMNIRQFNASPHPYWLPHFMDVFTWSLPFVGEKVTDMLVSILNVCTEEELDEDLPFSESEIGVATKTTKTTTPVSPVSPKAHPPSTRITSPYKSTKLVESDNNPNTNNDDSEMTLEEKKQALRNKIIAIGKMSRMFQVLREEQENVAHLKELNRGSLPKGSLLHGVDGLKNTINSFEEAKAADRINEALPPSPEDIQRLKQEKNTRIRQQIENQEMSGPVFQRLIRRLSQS

[20] = molecular target: Heat shock protein HSP 90-alpha (Homo sapiens, UniProt P07900); type: functional, organism-based
[21] = molecular target: ATP-dependent molecular chaperone HSP82 (Candida albicans (strain WO-1) (Yeast), UniProt C4YTQ8); test: loss of DOC-induced GRE-beta-galactosidase reporter signal, dose response, Hsp90 inhibitor project, S. cerevisiae, luminescence (AID 2400); type: functional, cell-based;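 further: beta-galactosidase luminescence from glucocorticoid response element reporter as proxy for Hsp90 function; inhibitor potency where signal loss means Hsp90 inhibition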
Sequence of ATP-dependent molecular chaperone HSP82 (C4YTQ8 whole entry): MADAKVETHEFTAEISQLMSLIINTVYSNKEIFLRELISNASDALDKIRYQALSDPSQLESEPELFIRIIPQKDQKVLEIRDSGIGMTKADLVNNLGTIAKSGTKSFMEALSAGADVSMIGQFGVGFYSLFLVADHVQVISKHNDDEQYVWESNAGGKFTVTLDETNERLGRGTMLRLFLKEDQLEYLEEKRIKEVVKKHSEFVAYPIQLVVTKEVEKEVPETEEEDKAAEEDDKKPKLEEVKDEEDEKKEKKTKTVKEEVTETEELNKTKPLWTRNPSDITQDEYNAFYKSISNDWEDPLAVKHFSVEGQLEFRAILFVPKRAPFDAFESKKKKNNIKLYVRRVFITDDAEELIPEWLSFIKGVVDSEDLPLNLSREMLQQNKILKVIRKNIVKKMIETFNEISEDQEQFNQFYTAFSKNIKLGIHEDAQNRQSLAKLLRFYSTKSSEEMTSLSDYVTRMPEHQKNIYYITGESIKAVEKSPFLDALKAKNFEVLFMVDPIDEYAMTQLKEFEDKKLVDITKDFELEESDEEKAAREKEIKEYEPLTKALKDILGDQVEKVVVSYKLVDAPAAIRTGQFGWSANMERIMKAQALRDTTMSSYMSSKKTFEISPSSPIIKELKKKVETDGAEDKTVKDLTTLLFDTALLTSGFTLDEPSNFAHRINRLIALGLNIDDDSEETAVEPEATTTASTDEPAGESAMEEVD

Sequence of Melanocortin receptor 4 (P32245 whole entry): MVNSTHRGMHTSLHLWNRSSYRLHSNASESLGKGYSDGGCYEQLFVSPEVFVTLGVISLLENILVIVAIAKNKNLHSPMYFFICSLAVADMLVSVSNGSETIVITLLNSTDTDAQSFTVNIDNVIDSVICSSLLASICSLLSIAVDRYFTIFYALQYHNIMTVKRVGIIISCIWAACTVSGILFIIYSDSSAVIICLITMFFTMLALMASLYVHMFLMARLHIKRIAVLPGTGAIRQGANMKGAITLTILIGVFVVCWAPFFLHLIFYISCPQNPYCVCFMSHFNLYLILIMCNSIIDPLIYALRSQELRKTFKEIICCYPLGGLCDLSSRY
Sequence of Beta-galactosidase (Q8VNN2 whole entry): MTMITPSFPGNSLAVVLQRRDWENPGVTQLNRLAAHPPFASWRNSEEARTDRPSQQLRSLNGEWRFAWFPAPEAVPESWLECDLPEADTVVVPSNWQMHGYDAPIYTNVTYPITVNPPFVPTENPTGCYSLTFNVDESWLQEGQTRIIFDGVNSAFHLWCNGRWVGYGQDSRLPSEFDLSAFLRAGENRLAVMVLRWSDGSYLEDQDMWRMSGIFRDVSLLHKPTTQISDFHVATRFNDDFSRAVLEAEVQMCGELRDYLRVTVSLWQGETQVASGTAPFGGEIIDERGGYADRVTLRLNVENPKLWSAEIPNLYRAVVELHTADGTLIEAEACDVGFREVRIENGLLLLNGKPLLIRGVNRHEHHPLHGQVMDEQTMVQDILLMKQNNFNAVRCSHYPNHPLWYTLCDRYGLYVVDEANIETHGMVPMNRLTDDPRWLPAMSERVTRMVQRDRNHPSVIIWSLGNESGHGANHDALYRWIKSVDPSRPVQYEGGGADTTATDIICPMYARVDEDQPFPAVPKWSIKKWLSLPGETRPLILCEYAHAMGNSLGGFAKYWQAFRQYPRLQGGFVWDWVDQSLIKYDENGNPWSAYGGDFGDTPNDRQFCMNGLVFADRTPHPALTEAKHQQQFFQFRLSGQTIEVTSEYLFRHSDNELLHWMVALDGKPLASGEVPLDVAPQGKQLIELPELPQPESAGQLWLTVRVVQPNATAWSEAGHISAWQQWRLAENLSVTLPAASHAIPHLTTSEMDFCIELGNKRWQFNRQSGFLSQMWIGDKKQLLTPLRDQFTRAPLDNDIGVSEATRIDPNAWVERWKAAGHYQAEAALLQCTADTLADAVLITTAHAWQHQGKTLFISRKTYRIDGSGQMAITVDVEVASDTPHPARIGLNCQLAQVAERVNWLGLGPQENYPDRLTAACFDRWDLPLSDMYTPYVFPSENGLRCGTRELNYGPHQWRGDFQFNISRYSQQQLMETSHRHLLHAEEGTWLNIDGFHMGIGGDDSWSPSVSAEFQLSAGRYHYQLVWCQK

## CCCCOc1cc(NCc2ccccc2)c2ncn(C(C)C)c2c1
[1]
  IC50: 13.4 µM (active)
INS1
  AC50: 8.11 µM (active)
[2]
  IC50: 12.9 µM (active)
[3]
  IC50: 12.2 µM (active)
[4]
  AC50: 17.3 µM (active)
[5]
  AC50: 20.3 µM (active)
[6]
  AC50: > 52 µM (inactive)

## Cc1ccc(NC(=O)N2CCC(O)(c3ccc(Cl)cc3)CC2)cc1
Beta-galactosidase
  IC50: > 80 µM (inactive)

## O=C(c1ccco1)N1CCN(C(=O)C2CC(c3ccc(F)cc3)=NO2)CC1 (stereo unspecified)
[7]
  EC50: > 100 µM (inactive)

## Cc1nnc(NC(=O)c2ccc(S(=O)(=O)N3CCCCC3C)cc2)o1 (stereo unspecified)
[8]
  AC50: 92.5 µM (active)

## Cc1ccc(-c2cnc(N)n2C)cc1C
[9]
  EC50: 3.86 µM (active)
Streptokinase A
  EC50: 89.4 µM (active)
Streptococcus
  EC50: > 150 µM (not active)
[8]
  AC50: 71.8 µM (active)

## CCN(CC(=O)NCc1cccs1)C(=O)/C=C/c1ccc(C)cc1
Beta-galactosidase
  IC50: > 80 µM (inactive)

## O=C(c1ccc(-n2cccc2)cc1)N1CCN(Cc2ccccc2)CC1
Beta-galactosidase
  IC50: > 80 µM (inactive)

## O=C(/C=C/c1ccc(Br)cc1)N1CCN(c2cccc(C(F)(F)F)c2)CC1
Beta-galactosidase
  IC50: > 80 µM (inactive)

## N#Cc1ccc(OCC(=O)NCCCn2ccnc2)cc1
[8]
  AC50: 95.7 µM (active)

## CCOc1cc(/C=C2\CN(C)C/C(=C\c3ccc(O)c(OCC)c3)C2=O)ccc1O
BJ [10]
  EC50: 3.26 µM (inconclusive)
BJ [11]
  EC50: 4.94 µM (inconclusive)
BJ [12]
  EC50: 2.64 µM (inconclusive)
[13]
  EC50: 2.93 µM (active)
BJ [14]
  EC50: 0.571 µM (active)
[15]
  IC50: 38.9 µM (active)

## Cc1ccc(C(=O)N2CCN(c3ccc(NC(=O)COc4ccccc4C)cc3)CC2)cc1
[16]
  AC50: 18.7 µM (active)
[17]
  AC50: 15.2 µM (active)
[18]
  AC50: 30.9 µM (active)

## O=C(COC(=O)c1ccco1)Nc1nnc(-c2ccccc2)o1
[8]
  AC50: 133 µM (active)

## CN(C)c1ccccc1-c1cc(NC=O)c2ncc(-c3cccc(C(F)(F)F)c3)n2c1
Melanocortin receptor 4
  EC50: > 89.2 µM (inactive)

## COc1ccc(-c2cc(NC(C)=O)c3ncc(-c4ccccc4)n3c2)c(OC)c1
Melanocortin receptor 4
  EC50: > 89.2 µM (inactive)

## O=CNc1cc(-c2ccsc2)cn2c(-c3ccccc3)cnc12
Melanocortin receptor 4
  EC50: > 89.2 µM (inactive)

## CCOc1ccccc1NC(=O)CCS(=O)(=O)c1cc2c(cc1Br)CCN2C(=O)C1CC1
[7]
  EC50: > 100 µM (inactive)

## CC(=O)Nc1ccc(C(C)C)cc1
[7]
  EC50: > 100 µM (inactive)

## CC(=O)Nc1cc(-c2ccccc2)cn2c(-c3ccc(F)cc3)cnc12
Melanocortin receptor 4
  EC50: > 89.2 µM (inactive)

## COc1ccc(S(=O)(=O)N2CCCCC2)cc1NC(=O)CCS(=O)(=O)c1ccc(C)cc1
[7]
  EC50: > 100 µM (inactive)

## C[C@@H]1CCCCO[C@H](CN(C)CC2CCCCC2)[C@H](C)CN([C@@H](C)CO)C(=O)c2cc(NC(=O)Nc3cccc4ccccc34)ccc2O1
[16]
  AC50: 11.1 µM (active)
[17]
  AC50: 0.587 µM (active)
[18]
  AC50: 10.6 µM (active)

## O=c1[nH]c(-c2ccccn2)nc(C(F)(F)F)c1Br
[19]
  EC50: > 180 µM (inactive)
[20]
  AC50: 4.03 µM (active)
[21]
  EC50: 10.7 µM (active)
